Experimental data published in US6114326A, “Use of cabergoline in the treatment of restless legs syndrome” (priority 1999, dated 2000).

Assays:
[1] = tested on: restless legs syndrome patients; experiment: Polysomnography in 12-week open label pilot trial of single evening cabergoline dose in RLS; format: in vivo
Method: Cabergoline in RLS, ENS, Nice, Abstract.
Efficacy was assessed by polysomnography and subjective ratings.
Following a 2-week baseline period, all patients were treated with cabergoline in an open trial for 12 weeks. Apart from levodopa, patients had to stop taking any medication known to have positive or negative effect on RLS two weeks before baseline (i.e., other dopamine agonists, benzodiazepines, opioids or other psychotropic agents). Patients who were on levodopa therapy were allowed to either stop levodopa prior to study entry or to continue, taper or discontinue levodopa during the study. To prevent well known peripheral dopaminergic side-effects such as nausea, vomiting, vertigo and arterial hypotension domperidone (not available in the United States) was comedicated initially and also tapered if possible. […] Neurological case history, examination, electrocardiogramm, chest x-ray and polysomnography were performed to ensure that selection criteria were fulfilled. A two-night PSG (including one night of adaptation) was performed to evaluate the diagnosis and inclusion/exclusion criteria regardless if patients were on or off levodopa. After a 12-week treatment period patients were studied again for one night in the sleep laboratory. Subjective ratings were obtained at baseline, week 4, week 8 and at the endpoint after 12 weeks. In addition patients were monitored by phone calls to note any adverse events and to determine whether to increase the dosage of the study drug, to decrease levodopa and to decrease domperidone. The time schedule of phone calls was variable and the frequency mostly dependent on the presence of simultaneous levodopa therapy.
Inclusion criteria. Patients were included if they fulfilled the minimal diagnostic criteria according to the International RLS Study Group. After rating clinical symptoms at baseline, patients were referred to polysomnography without any RLS specific treatment other than levodopa. Patients were included if they had more than five PLM per hour of time-in-bed (PLM index) and a sleep efficiency index (total sleep time per hour time-in-bed) of less than 85%.
Exclusion criteria. Patients with signs of any other sleep disorder on PSG, especially sleep apnea syndrome (respiratory disturbances index >5 per hour total sleep time), were excluded. Subjects receiving neuroleptic, antidepressant or other psychotropic medications or with any severe additional illness (with special consideration to pulmonary fibrosis) or drug abuse were also excluded. Patients with established or suspected hypersensitivity to ergot derivates and patients with clinical significant change in routine laboratory studies were not included. Pregnant or lactating women or women without safe contraception were not allowed to participate in this study.
Dosing. Study medication was available in tablets containing 0.5 mg, 1 mg or 2 mg Cabergoline (Cabaseril®, Pharmacia & Upjohn, Erlangen, Germany). Medication was taken 2 hours prior to bedtime. Initial therapy consisted of one 0.5 mg tablet. […] The increased dose could be decreased again if necessary. All patients were initially comedicated with domperidone 20 mg t.i.d. which could be tapered and stopped if possible. Subjects who were pretreated with levodopa were asked to decrease levodopa simultaneously if possible.
Polysomnographic studies. At baseline and at the study end after 12 weeks PSG recordings were performed for one night (11 p.m.-7 a.m.) to evaluate inclusion/exclusion criteria and to obtain primary and secondary efficacy parameters. Studies included monitoring of electroencephalogram (EEG) (C3-A2, C4-A1), electrooculogram, chin EMG, EMG of both anterior tibialis muscles and electrocardiogram (ECG). PSG methods used standard procedures such as Pollmacher and Schultz. At baseline respiration, oronasal airflow, respiration effort and oxygen saturation were monitored by standard methods. Sleep scoring was also done by methods. […]

[2] = Half-life and duration of action; format: in vivo; settings: 'here we report'
[3] = cited to Ahlskog et al. 1996; cited from earlier work

In the case of `C=CCN1C[C@H](C(=O)N(CCCN(C)C)C(=O)NCC)C[C@@H]2c3cccc4[nH]cc(c34)C[C@H]21` [Cabergoline, 1((6-allylergolin-8β-yl) -carbony.)-1-(3-(dimethylamino)propyl)-3-ethylurea], the “increase in total sleep time” value ([1]; endpoint vs. baseline) is reported as “more than one”, the “reduction of PLM during time in bed, PLM arousals and PLM awakenings (in words)” value ([1]; endpoint vs. baseline) is reported as “significant reduction” and the “sleep efficiency (in words)” value ([1]; endpoint vs. baseline) is reported as “increased”. For the same compound, the “sleep latency (in words)” value ([1]; endpoint vs. baseline) was “shortened”, the “total sleep time (in words)” value ([1]; endpoint vs. baseline) was “prolonged” and the “total number of PLM during time in bed (No. Of PLM)” value ([1]; week 12, cabergoline monotherapy (mean 2.1 mg, single evening dose), baseline 195.8 ± 109.1) was 26.4±40.2. For the same compound, the “number of PLM awakenings” value ([1]; week 12, cabergoline monotherapy, baseline 9.6 ± 4.9) was 1.0±2.0, the PLM arousal index ([1]; week 12, cabergoline monotherapy, baseline 10.4 ± 7.8) was 1.0±1.7 number of PLM arousals per hou and the PLM index ([1]; week 12, cabergoline monotherapy, baseline 27.7 ± 17.1) was 3.6±5.3 number of PLM per hour time in. For the same compound, the “Sleep Latency” value ([1]; week 12, cabergoline monotherapy, baseline 42.4 ± 49.1) was 16.3 ± 22.8 min, the PLM arousals ([1]; week 12, cabergoline monotherapy, baseline 51.7 ± 42.3) was 6.4±11.2 and the Sleep efficiency ([1]; week 12, cabergoline monotherapy, baseline 63.1 ± 10.5) was 79.1±12.5%. The Total sleep time ([1]; week 12, cabergoline monotherapy, baseline 302.7 ± 50.7) was 379.4 ± 59.8 min, the “duration of action (may last)” value [2] was at most 65 h and the duration of action [3] was “at least 24 hours”.
